According to US20090149551A1 (priority 2007, published 2009):
Like-named read-outs stand apart in the source and are kept apart here.

How the values were obtained:
[1] = tested on: pooled human liver microsomes
P450 1A/1B = conditions: HepG2, co-treatment with TCDD; cited from earlier work
[2] = Stability in solution by HPLC analysis; type: physicochemical
Procedure: 4b,5,6,7,8,8a-cis-Hexahydro-2-hydroxy-4b,8,8a-trimethylphenanthren-9,10-dione (OHCT). Spontaneous oxidation of HCT to OHCT was carried out in 100 mM phosphate buffer (pH 7.4) and 1.0 mM HCT in 10% acetonitrile. […]

human HepG2 cells [3] = conditions: HepG2, co-treatment with AFB1; Zhou et al. 2006; cited from earlier work
[4] = molecular target: T1, recombinant human P450 3A4 (Homo sapiens, UniProt P08684); assay: Vivid P450 3A4 activity assay with NADPH regenerating system; type: biochemical; conditions: for decrease of P450 3A4 activity: 2 μM DBOMF
T1 construct: purchased Invitrogen (Carlsbad, Calif.)
T1 sequence (P08684 whole entry): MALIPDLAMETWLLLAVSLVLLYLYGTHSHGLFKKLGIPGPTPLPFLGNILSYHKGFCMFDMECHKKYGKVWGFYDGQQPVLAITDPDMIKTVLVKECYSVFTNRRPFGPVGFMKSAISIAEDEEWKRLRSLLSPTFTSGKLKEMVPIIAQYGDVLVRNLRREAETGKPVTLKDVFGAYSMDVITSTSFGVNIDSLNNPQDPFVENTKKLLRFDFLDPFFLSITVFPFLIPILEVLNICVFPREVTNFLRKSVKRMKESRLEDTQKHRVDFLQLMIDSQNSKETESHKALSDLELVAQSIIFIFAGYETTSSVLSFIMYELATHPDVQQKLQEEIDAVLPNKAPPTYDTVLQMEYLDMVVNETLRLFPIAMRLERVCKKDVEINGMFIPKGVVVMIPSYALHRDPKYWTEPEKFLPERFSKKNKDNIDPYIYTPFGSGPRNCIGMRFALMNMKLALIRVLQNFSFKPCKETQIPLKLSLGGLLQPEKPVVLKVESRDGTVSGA
Procedure: (§1) The Vivid® P450 3A4 activity assay was carried out according to the manufacturer's protocol. Briefly, water (30 μL) and solutions of HCT (10 μL) were added to wells of a 96-well black plate. Master pre-mix solutions (50 μL) containing recombinant human P450 3A4 and rabbit NADPH P450 reductase were then added, and the resulting solutions were equilibrated at room temperature for 20 min. Finally, 10 μL of mixed NADP^+ and DBOMF substrate solutions were added, and the fluorescence intensity over time was recorded with a fluorometer at the excitation and emission wavelengths of 485 and 535 nm, respectively. The final concentrations were 100 mM phosphate buffer (pH 8.0), 3.3 mM glucose-6-phosphate, 0.3 unit/mL glucose-6-phosphate dehydrogenase, 1.0 mM NADP^+, 2 μM DBOMF and 5 nM P450 3A4 with 0.1% DMSO. Control experiments included no DBOMF as the background and 1 μM ketoconazole as the positive control. The rates of the P450 activity were obtained from the slope of the change of the fluorescent intensity over the initial 8 min.
(§2) Enzyme and Cellular Studies with OHCT. The inhibitory effect of OHCT on P450 3A4 and the metabolic conversion of AFB1 with liver microsomes were studied similarly as described for HCT. […] The P450 activity was carried out similarly as described above with concentrations of DBOMF at 0.50, 0.67, 1.0, and 2.0 μM, respectively. The rates of the P450 activity were obtained as the slope of the change of the fluorescent intensity over the initial 4 min. The inhibitory constants of OHCT were obtained from the global best fit of the mixed inhibition model by GraphPad Prism (version 4.00, GraphPad Software, San Diego, Calif.).

P. falciparum clone Dd2 = type: cell-based, Plasmodium falciparum
Procedure: Cultures of Plasmodium falciparum.
In vitro antiplasmodial activity: All solutions of chloroquine diphosphate, artemisinin (Sigma Aldrich), and OHCT were prepared in media RPMI 1640, ethanol and 0.1% DMSO, respectively. […] Parasite growth was estimated by microscopic observation of Giemsa-stained blood smears. All results presented are the means of at least three independent experiments.
OHCT action on specific parasite life cycle stages: P. falciparum cultures were synchronized with 5% sorbitol and the Percoll-Sorbitol methods. Dilutions of OHCT, chloroquine, and artemisinin were prepared. To determine the in vitro efficacies of the three antimalarial drugs in culture, serial dilutions were prepared: for artemisinin, chloroquine and OHCT at 2, 4, 8, 16, 32 and 40 μM, respectively. After synchronization, the parasites were plated at the ring stage in 96-well plates. Each plate corresponded to one of the successive 6-h periods of the P. falciparum life cycle.

[5] = tested on: human liver or lung cells; assay: Toxicity to human liver or lung cells in culture
[6] = Toxicity in mice receiving OHCT; conditions: administration over four days, observed three months after administration
human HepG2 cells [7] = type: cell-based; conditions: for chemoprotection against AFB1 induced cytotoxicity: 2 μM AFB1, HepG2
Procedure: The cell viability MTT assay on human HepG2 cells was carried out as previously reported. Briefly, HepG2 cells were seeded at 30,000 cells/well on a 96 well plate for 4 h before the treatment with AFB1 and OHCT or ketoconazole. After incubation for 72 h, the MTT assay was performed, followed by obtaining the absorbance of each well at 570 nm with a plate reader (μQuant, BioTek Instruments, Vt.). The statistical analyses (one-way ANOVA with Dunnett's test) were performed by GraphPad Prism.

CYP3A4 (P450 3A4) = molecular target: T2, CYP3A4 (P450 3A4) (Homo sapiens, UniProt P08684); assay: Vivid P450 3A4 activity assay with NADPH regenerating system; type: biochemical; conditions: human, recombinant human P450 3A4 with rabbit NADPH P450 reductase, pH 8, probe DBOMF 2 μM; 1 μM, 2 μM DBOMF; read-out: inhibition of the enzyme activity (P450 3A4)
T2 construct: purchased Invitrogen (Carlsbad, Calif.)
T2 sequence (P08684 whole entry): as above
Procedure: as §1, §2

[8] = 40 μM, 50 μM AFB1, NADPH regenerating system, 37° C. 90 min
[9] = mixed inhibition model, global best fit, substrate DBOMF

## 2-hydroxy-cis-terpenone [HCT]
[1]; [8]
  inhibition of the metabolic conversion of AFB1 in liver microsomes: effective inhibition
[1]; 40 μM, with 50 μM α-NF
  inhibition of the α-NF stimulated production of exo-AFB1-epoxide: consistently inhibited
[1]; 10, 20, 40 μM
  inhibition of the carcinogenic conversion of AFB1 with liver microsomes: inhibited by HCT in a concentration dependent manner
P450 1A/1B
  effect on TCDD induced P450-1 activity: inhibited
[2]; 100 mM phosphate buffer pH 7.4, 37° C.
  stability in the phosphate buffer and in the AFB1 metabolic study: slow degradation
[2]; acetonitrile, −15° C., several weeks
  stability of stock solutions: no significant degradation
Human HepG2 cells [3]
  effect of co-treatment on AFB1 induced cytotoxicity including DNA damage and cell death: reduced AFB1 induced cytotoxicity
[4]; 10 μM
  decrease of P450 3A4 activity: ~30%
[4]; 20 μM
  decrease of P450 3A4 activity: ~50%
[4]; 40 μM
  decrease of P450 3A4 activity: ~70%
[4]; purified P450 3A4, read-out: IC50, inhibition of purified P450 3A4 enzyme activity
  IC50: 20 µM

## CC1CCCC2(C)c3ccc(O)cc3C(=O)C(=O)C12C (stereo not drawn) [OHCT, 4b,5,6,7,8,8a-cis-Hexahydro-2-hydroxy-4b,8,8a-trimethylphenanthren-9,10-dione]
[1]; [8]
  inhibition of the metabolic conversion of AFB1 in liver microsomes: inhibition of both GSH-AFB1 adducts and aflatoxin Q1
[1]; liver microsomes, HPLC
  stability under aqueous conditions and in the metabolic study of liver microsomes: no degradation
P. falciparum clone Dd2; 2 μM
  activity against the gametocyte forms of the parasite: active
P. falciparum clone Dd2; 16 μM, 8 h, clone Dd2
  decrease of parasitemia: 50%
P. falciparum clone Dd2; 24 hr following treatment, concentration dependent
  killing of chloroquine resistant clone Dd2: killed
P. falciparum clone Dd2; clone Dd2, 24 hr
  inhibition of early ring, trophozoite and schizont stages: equally inhibited
[2]; 72 h at 37° C., HPLC
  stability under aqueous conditions: no degradation
[5]
  toxicity to human liver or lung cells in culture: no toxicity
[6]
  signs of toxicity in mice: no signs of toxicity
Human HepG2 cells [7]; 60 μM alone, HepG2
  cytotoxicity of the compound alone: no cytotoxicity
Human HepG2 cells [7]; 60 μM, 2 μM AFB1, HepG2, 72 h, MTT
  cell viability on co-treatment with AFB1: more than 90%
Human HepG2 cells [7]; 40 and 60 μM
  chemoprotection against AFB1 induced cytotoxicity: effective chemoprotection
[4]; 20 μM
  decrease of P450 3A4 activity: 50%
[4]; [9]
  Ki (disassociation constant of enzyme inhibitor complex): 17.6 ± 5.6 µM
  Ki′ (disassociation constant of enzyme-substrate inhibitor complex): 7.6 ± 1.5 µM

## CC(C)CCC[C@@H](C)[C@H]1CC[C@H]2[C@@H]3CC=C4C[C@@H](O)CC[C@]4(C)[C@H]3CC[C@]12C [cholesterol, reference compound]
[1]; up to 100 μM
  inhibitory effect on the metabolic conversion of AFB1 in liver microsomes: no inhibitory effect

## CC(=O)N1CCN(c2ccc(OCC3COC(Cn4ccnc4)(c4ccc(Cl)cc4Cl)O3)cc2)CC1 (stereo not shown) [ketoconazole, reference compound]
[1]
  inhibition of the α-NF stimulated production of exo-AFB1-epoxide: consistently inhibited
[1]; 1 μM, 50 μM AFB1, NADPH regenerating system, 37° C. 90 min
  inhibition of the metabolism of AFB1 in liver microsomes: same extent as 40 μM HCT
Human HepG2 cells [7]; 20 μM alone, HepG2
  cell mortality, compound alone: 20%
Human HepG2 cells [7]; 10 and 20 μM
  chemoprotection against AFB1 induced cytotoxicity: observed
CYP3A4 (P450 3A4)
  inhibition at 8 min, 1 μM: > 90%

## O=c1cc(-c2ccccc2)oc2c1ccc1ccccc12 [α-NF, α-naphthoflavone, reference compound]
[1]; 50 μM
  decrease of aflatoxin Q1 versus no α-NF: 6 fold
  increase of the amount of GSH-AFB1 adducts versus no α-NF: 2.3 folds
